From patent US20210130401A1, “PEPTIDOMIMETIC INHIBITORS OF THE WDR5-MLL INTERACTION” (THE REGENTS OF THE UNIVERSITY OF MICHIGAN, priority 2017, published 2021) come the findings set out here.

Molecules are shown by their SMILES. Starred links: 1 amine or outer side, 2 acyl side, 3 side chain; linkers in the order of their positions; H or OH if unused. Positions of bridges follow the written chain, without caps; N, C: chain ends. Non-standard residues stand in square brackets, D forms with d. Residues, ends and D or L forms follow the SMILES beside them. ξ: configuration not given here. *: point of attachment. Arg(NO2) = N=C(NCCC[C@H](N)C(=O)O)N[N+](=O)[O-]; dαMeDab = C[C@](CCN[*:3])(N[*:1])C(=O)[*:2]; d1Nal = N[C@H](Cc1cccc2ccccc12)C(=O)O; Arg(Et) = CCNC(=N)NCCC[C@H](N)C(=O)O; dPhe(2-F) = N[C@H](Cc1ccccc1F)C(=O)O; Cit = NC(=O)NCCC[C@H](N)C(=O)O; dCha = N[C@H](CC1CCCCC1)C(=O)O; dPhg = N[C@@H](C(=O)O)c1ccccc1; ξhhPhe = NC(CCCc1ccccc1)C(=O)O; Imidazol2yl = c1c[nH]c(*)n1; Pyridin(2-yl) = c1ccc(*)nc1; Isobutyryl = CC(C)C(=O)*; Dab = NCC[C@H](N)C(=O)O; Abu = CC[C@H](N)C(=O)O; ξDab = NCCC(N)C(=O)O

One assay deals with MOLM-13 leukemia cells carrying MLL-AF9 fusion. Kind of assay: cell viability assay (WST-8), MOLM-13. The note with it: Homo sapiens, MOLM-13, 96 h, read-out: MOLM-13 IC50 (μM). The format is cell-based.
On to `CC[C@@H]1NC(=O)C(CCCc2ccccc2)NC(=O)[C@](C)(NC(=O)C(C)C)CCNC(=O)[C@@H](c2ccccc2)NC1=O` (stereo partly drawn) [Cpd. No. 14, N-((3R,6S,12R)-6-ethyl-12-methyl-2,5,8,11-tetraoxo-3-phenyl-9-(3-phenylpropyl)-1,4,7,10-tetraazacyclotetradecan-12-yl)isobutyramide] (Isobutyryl-[dαMeDab][ξhhPhe][Abu][dPhg]; lactam 1-C), for which the IC50 is greater than 10 µM. Still for that read-out and setting: the figure for `CC[C@@H]1NC(=O)[C@H](CCCNC(=N)N)NC(=O)[C@](C)(NC(=O)C(C)C)CCNC(=O)[C@@H](Cc2ccccc2F)NC1=O` [Cpd. No. 55, N-((3R,6S,9S,12R)-6-ethyl-3-(2-fluorobenzyl)-9-(3-guanidinopropyl)-12-methyl-2,5,8,11-tetraoxo-1,4,7,10-tetraazacyclotetradecan-12-yl)isobutyramide] (Isobutyryl-[dαMeDab]R[Abu][dPhe(2-F)]; lactam 1-C) is 3.59 µM. The same measure, in the same setting: the figure for `CC[C@@H]1NC(=O)[C@H](CCCNC(=N)N)NC(=O)[C@](C)(NC(=O)C(C)C)CCNC(=O)[C@@H](c2ccccc2Cl)NC1=O` [Cpd. No. 83, N-((3R,6S,9S,12R)-3-(2-chlorophenyl)-6-ethyl-9-(3-guanidinopropyl)-12-methyl-2,5,8,11-tetraoxo-1,4,7,10-tetraazacyclotetradecan-12-yl)isobutyramide] is 2.6 µM; for `CC[C@@H]1NC(=O)[C@H](CCCNC(=N)N)NC(=O)[C@](C)(NC(=O)C(C)C)CCNC(=O)[C@@](C)(c2ccccc2)NC1=O` [Cpd. No. 78, N-((3R,6S,9S,12R)-6-ethyl-9-(3-guanidinopropyl)-3,12-dimethyl-2,5,8,11-tetraoxo-3-phenyl-1,4,7,10-tetraazacyclotetradecan-12-yl)isobutyramide] it is greater than 10 µM.

As to `CC[C@@H]1NC(=O)[C@H](CCNC2=NCCN2)NC(=O)[C@](C)(NC(=O)C(C)C)CCNC(=O)[C@@H](c2ccccc2)NC1=O` [Cpd. No. 18, N-((3R,6S,9S,12R)-9-(2-((4,5-dihydro-1H-imidazol-2-yl)amino)ethyl)-6-ethyl-12-methyl-2,5,8,11-tetraoxo-3-phenyl-1,4,7,10-tetraazacyclotetradecan-12-yl)isobutyramide], the IC50 was greater than 10 µM. The same measure, in the same setting: then `CC[C@@H]1NC(=O)[C@H](CCC(N)=O)NC(=O)[C@](C)(NC(=O)C(C)C)CCNC(=O)[C@@H](c2ccccc2)NC1=O` [Cpd. No. 15, N-((3R,6S,12R)-9-(3-amino-3-oxopropyl)-6-ethyl-12-methyl-2,5,8,11-tetraoxo-3-phenyl-1,4,7,10-tetraazacyclotetradecan-12-yl)isobutyramide] (Isobutyryl-[dαMeDab]Q[Abu][dPhg]; lactam 1-C), with greater than 10 µM; and `CC[C@@H]1NC(=O)[C@H](CCCNC2CCN(C)CC2)NC(=O)[C@](C)(NC(=O)C(C)C)CCNC(=O)[C@@H](c2ccccc2)NC1=O` [Cpd. No. 9, N-((3R,6S,9S,12R)-6-ethyl-12-methyl-9-(3-((1-methylpiperidin-4-yl)arnino)propyl)-2,5,8,11-tetraoxo-3-phenyl-1,4,7,10-tetraazacyclotetradecan-12-yl)isobutyramide], with greater than 10 µM; and `CC[C@@H]1NC(=O)[C@H](CCCNC(=N)NC#N)NC(=O)[C@](C)(NC(=O)C(C)C)CCNC(=O)[C@@H](CC2CCCCC2)NC1=O` [Cpd. No. 33, N-((3R,6S,9S,12R)-9-(3-(3-cyanoguanidino)propyl)-3-(cyclohexylmethyl)-6-ethyl-12-methyl-2,5,8,11-tetraoxo-1,4,7,10-tetraazacyclotetradecan-12-yl)isobutyramide], with 6.5 µM.

For `CC[C@@H]1NC(=O)[C@H](CCCNC(=N)NN)NC(=O)[C@](C)(NC(=O)C(C)C)CCNC(=O)[C@@H](CC2CCCCC2)NC1=O` [Cpd. No. 34, N-((3R,6S,9S,12R)-3-(cyclohexylmethyl)-6-ethyl-9-(3-(hydrazinecarboximidamido)propyl)-12-methyl-2,5,8,11-tetraoxo-1,4,7,10-tetraazacyclotetradecan-12-yl)isobutyramide], the IC50 was greater than 10 µM. Still for that read-out and setting: then `CC[C@@H]1NC(=O)[C@H](CCCN2CCN(C)CC2)NC(=O)[C@](C)(NC(=O)C(C)C)CCNC(=O)[C@@H](CC2CCCCC2)NC1=O` [Cpd. No. 43, N-((3R,6S,9S,12R)-3-(cyclohexylmethyl)-6-ethyl-12-methyl-9-(3-(4-methylpiperazin-1-yl)propyl)-2,5,8,11-tetraoxo-1,4,7,10-tetraazacyclotetradecan-12-yl)isobutyramide], with greater than 10 µM.

Take `CC[C@@H]1NC(=O)[C@H](CCCNC(=N)N)NC(=O)[C@](C)(NC(=O)C(C)C)CCNC(=O)[C@@H](Cc2cccc3ccccc23)NC1=O` [Cpd. No. 58, N-((3R,6S,9S,12R)-6-ethyl-9-(3-guanidinopropyl)-12-methyl-3-(naphthalen-1-ylmethyl)-2,5,8,11-tetraoxo-1,4,7,10-tetraazacyclotetradecan-12-yl)isobutyramide] (Isobutyryl-[dαMeDab]R[Abu][d1Nal]; lactam 1-C): the IC50 worked out at 2.37 µM. Regarding `CC[C@@H]1NC(=O)[C@H](CCCNC(N)=O)NC(=O)[C@](C)(NC(=O)C(C)C)CCNC(=O)[C@@H](c2ccccc2)NC1=O` [Cpd. No. 16, N-((3R,6S,9S,12R)-6-ethyl-12-methyl-2,5,8,11-tetraoxo-3-phenyl-9-(3-ureidopropyl)-1,4,7,10-tetraazacyclotetradecan-12-yl)isobutyramide] (Isobutyryl-[dαMeDab][Cit][Abu][dPhg]; lactam 1-C), the IC50 is greater than 10 µM. On the same count and under the same terms, the figure for `CCNC(=N)NCCC[C@@H]1NC(=O)[C@](C)(NC(=O)C(C)C)CCNC(=O)[C@@H](CC2CCCCC2)NC(=O)[C@H](CC)NC1=O` [Cpd. No. 45, N-((3R,6S,9S,12R)-3-(cyclohexylmethyl)-6-ethyl-9-(3-(3-ethylguanidino)propyl)-12-methyl-2,5,8,11-tetraoxo-1,4,7,10-tetraazacyclotetradecan-12-yl)isobutyramide] (Isobutyryl-[dαMeDab][Arg(Et)][Abu][dCha]; lactam 1-C) is 3.4 µM; for `CC[C@@H]1NC(=O)[C@H](CCNc2ncc[nH]2)NC(=O)[C@](C)(NC(=O)C(C)C)CCNC(=O)[C@@H](c2ccccc2)NC1=O` [Cpd. No. 19, N-((3R,6S,9S,12R)-9-(2-((1H-imidazol-2-yl)amino)ethyl)-6-ethyl-12-methyl-2,5,8,11-tetraoxo-3-phenyl-1,4,7,10-tetraazacyclotetradecan-12-yl)isobutyramide] (Isobutyryl-[dαMeDab][Dab](Imidazol2yl)[Abu][dPhg]; lactam 1-C) it is greater than 10 µM; for `CC[C@@H]1NC(=O)[C@H](CNC2CCN(C)CC2)NC(=O)[C@](C)(NC(=O)C(C)C)CCNC(=O)[C@@H](c2ccccc2)NC1=O` [Cpd. No. 7, N-((3R,6S,9S,12R)-6-ethyl-12-methyl-9-(((1-methylpiperidin-4-yl)amino)methyl)-2,5,8,11-tetraoxo-3-phenyl-1,4,7,10-tetraazacyclotetradecan-12-yl)isobutyramide] it is greater than 10 µM. On the same count and under the same terms, then `CC[C@@H]1NC(=O)C(CCNc2ccccn2)NC(=O)[C@](C)(NC(=O)C(C)C)CCNC(=O)[C@@H](c2ccccc2)NC1=O` (stereo partly drawn) [Cpd. No. 11, N-((3R,6S,12R)-6-ethyl-12-methyl-2,5,8,11-tetraoxo-3-phenyl-9-(2-(pyridin-2-ylamino)ethyl)-1,4,7,10-tetraazacyclotetradecan-12-yl)isobutyramide] (Isobutyryl-[dαMeDab][ξDab](Pyridin(2-yl))[Abu][dPhg]; lactam 1-C), with greater than 10 µM; and `CC[C@@H]1NC(=O)[C@H](CCCNC(=N)NC(C)=O)NC(=O)[C@](C)(NC(=O)C(C)C)CCNC(=O)[C@@H](CC2CCCCC2)NC1=O` [Cpd. No. 26, N-((3R,6S,9S,12R)-9-(3-(3-acetylguanidino)propyl)-3-(cyclohexylmethyl)-6-ethyl-12-methyl-2,5,8,11-tetraoxo-1,4,7,10-tetraazacyclotetradecan-12-yl)isobutyramide] (Isobutyryl-[dαMeDab]R(Ac)[Abu][dCha]; lactam 1-C), with 1.02 µM. On the same count and under the same terms, the figure for `CC[C@@H]1NC(=O)[C@H](CCCNC(=N)N)NC(=O)[C@](C)(NC(=O)C(C)C)CCNC(=O)[C@@H](c2ccc(Cl)cc2)NC1=O` [Cpd. No. 100, N-((3R,6S,9S,12R)-3-(4-chlorophenyl)-6-ethyl-9-(3-guanidinopropyl)-12-methyl-2,5,8,11-tetraoxo-1,4,7,10-tetraazacyclotetradecan-12-yl)isobutyramide] is 2.2 µM.

The same assay, now with this note: Homo sapiens, MOLM-13, 96 h; Table 2A; 4 days treatment; read-out: MOLM-13 IC50.
In the case of `CC[C@H](C)[C@@H]1NC(=O)[C@H](CCCNC(=N)N)NC(=O)[C@](C)(NC(=O)C(C)C)CCNC(=O)[C@@H](c2ccccc2)NC1=O` [Cpd. No. 90, N-((3R,6S,9S,12R)-6-((S)-sec-butyl)-9-(3-guanidinopropyl)-12-methyl-2,5,8,11-tetraoxo-3-phenyl-1,4,7,10-tetraazacyclotetradecan-12-yl)isobutyramide] (Isobutyryl-[dαMeDab]RI[dPhg]; lactam 1-C), the half-maximal inhibitory concentration (IC50) was greater than 10 µM. The same measure, in the same setting: the figure for `CC[C@@H]1NC(=O)[C@H](CCCNC(=N)N)NC(=O)[C@](C)(NC(=O)C(C)C)CCNC(=O)[C@@H](C)NC1=O` [Cpd. No. 48, N-((3R,6S,9S,12R)-6-ethyl-9-(3-guanidinopropyl)-3,12-dimethyl-2,5,8,11-tetraoxo-1,4,7,10-tetraazacyclotetradecan-12-yl)isobutyramide] (Isobutyryl-[dαMeDab]R[Abu][dA]; lactam 1-C) is 1.72 µM; for `CC[C@@H]1NC(=O)[C@H](CCCNC(=N)N[N+](=O)[O-])NC(=O)[C@](C)(NC(=O)C(C)C)CCNC(=O)[C@@H](CC2CCCCC2)NC1=O` [Cpd. No. 32, N-((3R,6S,9S,12R)-3-(cyclohexylmethyl)-6-ethyl-12-methyl-9-(3-(3-nitroguanidino)propyl)-2,5,8,11-tetraoxo-1,4,7,10-tetraazacyclotetradecan-12-yl)isobutyramide] (Isobutyryl-[dαMeDab][Arg(NO2)][Abu][dCha]; lactam 1-C) it is greater than 10 µM.

What is called IC50 is the concentration that gives 50% inhibition.
